Consider four compounds from US10583094B2.

Data set [1] relates to MCA stroke (MCE model). Set-up: species or system Wistar rats. The conditions noted are these: rat, in vivo, sc.
Data set [2] relates to MCA stroke (MCE model). As to the kind of experiment: MCA stroke (MCE model): tissue water content by wet/dry weight. The conditions noted are these: 8 hr after stroke. The format is in vivo, Wistar rats. The method, then:
For large MCA strokes with malignant cerebral edema (MCE), the inventors first embolized microparticles (Nakabayashi et al., 1997) [polyvinyl alcohol (PVA) particles; […] […] TTC(−) portions of the involved hemisphere. […] Of these, 15 rats were used for validation of drug action (mortality, tissue water and glucose) and 5 rats were used for determination of drug distribution. […] For stroke size, stained sections were photographed and images were analyzed (Scion Image) to determine the percent of the involved hemisphere occupied by TTC(−) tissue; no correction for edema was performed. For some determinations of water or SUR1 protein content, individual coronal sections were divided under magnification into 3 parts: (i) the non-involved, control hemisphere; (ii) the TTC(+) portion of the involved hemisphere; (iii) the TTC(−) portion of the involved hemisphere. For each animal, pooled tissues from the 3 parts were then processed for tissue water measurements or for Western blots. Tissue water was quantified by the wet/dry weight method (Hua et al., 2003). Tissue samples were blotted to remove small quantities of adsorbed fluid. Samples were weighed with a precision scale to obtain the wet weight (WW), dried to constant weight at 80° C. and low vacuum, and then reweighed to obtain the dry weight (WD). The percent H2O of each tissue sample was then calculated as (WW-WD)×100/WW.

Data set [3] concerns freshly isolated R1 astrocytes. The data set is described as follows: Na azide-induced blebbing and cell death of freshly isolated R1 astrocytes.
Another data set has as its system thromboembolic stroke. The data set is described as follows: Thromboembolic stroke with rtPA reperfusion at 6 hr: hemorrhagic conversion. It is filed as in vivo, spontaneously hypertensive rats. The conditions noted are these: rtPA 10 mg/kg i.v. at 6 hr, 24 hr after stroke. The method, then: A rodent model of thromboembolic stroke was used (Aoki et al., 2002; Kijkhuizen et al., 2001; Kano et al., 2000; Sumii et al., 2002; Tejima et al., 2001). […] Sumii et al., 2002). Rectal temperature was maintained at 37° C. with a thermostat-controlled heating pad. The right femoral artery was cannulated, and physiological parameters, including temperature, mean blood pressure, pH, pO2, and pCO2, glucose were monitored. Temporary focal ischemia was obtained with an embolic model that used allogeneic clots to occlude the MCA. Allogeneic, thrombin-induced, fibrin-rich blood clots were prepared using methods adapted from […] et al. (Asahi et al., 2000; […] et al., 2003; Sumii et al., 2002). Seven clots, 1.5 mm long, were used for embolizing. Using a ventral cervical incision, the internal and external carotid arteries were exposed. The external carotid artery and pterygopalatine arteries were ligated. Removable surgical clips were applied to the common and internal carotid arteries. The modified PE-50 catheter containing the clots was inserted retrograde into the external carotid artery and advanced up to the internal carotid artery. The temporary clips were removed, and the clots were injected. Incisions were closed. […] Physiological parameters, including temperature, mean blood pressure (tail cuff plethysmography), blood gases and glucose were monitored. […]

The conditions of data set [4]: rat, in vivo.
A further data set concerns rodent model of stroke. The data set is described as follows: Rodent model of stroke, mortality and hemisphere water (Example 9). The format is in vivo, rat. The conditions noted are these: n=5 in each group.
In a further data set the test system is MMP-9 & MMP-2. As to the kind of experiment: Zymography of gelatinase activity of recombinant enzyme and stroke tissue. The format is biochemical. The conditions noted are these: glibenclamide 10 μM; MMP inhibitor II 300 nM. As to the method: Activation of MMP-9 & MMP-2 in stroke tissue was compared to controls.
Next, the supernatants underwent a gelatinase purification process with gelatin-Sepharose 4B (Pharmacia), and Zymography was performed on the purified supernatants in sodium dodecyl sulfate gels containing gelatin (Rosenberg, 1994). Dried gels were scanned with a transparency scanner, and images were analyzed by densitometry. The relative lysis of an individual sample was expressed as the integrated density value of its band and divided by the protein content of the sample.

In the next data set the test system is SUR1. The data set is described as follows: SUR1 knockdown by antisense ODN infusion at gelfoam implantation site; R1 astrocyte response to Na azide. Conditions: for Depolarization of R1 astrocytes on Na azide: Na azide 1 mM. The format is cell-based, rat. The source says:
To further test involvement of SUR1, SUR1 expression was “knocked down” in situ by infusing oligodeoxynucleotide (ODN) for 14 days using a mini-osmotic pump, with the delivery catheter placed in the gelfoam implantation site in the brain, in the otherwise standard model we use for R1 astrocyte isolation ([…] et al., 1980, […] et al., 2002, […] et al., 2000, […] et al., 1999). Knockdown of SUR1 expression (SUR1KD) was achieved using antisense (AS; [NT] ID NO: 9)) (Yokoshiki et al., 1999) oligodeoxynucleotide (ODN), with scrambled ([…] ID NO: 10)) ODN being used as control. […] In R1 astrocytes from SUR1KD, however, Na azide had little effect on resting membrane potential (FIG. 24D).

Regarding “BODIPY-FL-glyburide [BODIPY-glibenclamide]”, the “Mortality during 7 days after MCA stroke” value in the data set with MCA stroke (MCE model) [1] came out at 40%. For the same compound, the “Water in TTC(+) tissue of involved hemisphere” value in the data set on MCA stroke (MCE model) [2] worked out at 82.7±1.4%.

Take `CC1=NS(=O)(=O)c2cc(Cl)ccc2N1` [diazoxide]: in data set [3] (phase contrast, observed over 30 min), the “Cell morphology (blebbing) on exposure to channel opener” value is listed as “developed progressive blebbing consistent with cytotoxic edema”.

Regarding `COc1ccc(Cl)cc1C(=O)NCCc1ccc(S(=O)(=O)NC(=O)NC2CCCCC2)cc1` [glibenclamide], the “Animals with hemorrhagic conversion” value with thromboembolic stroke (co-treated with glibenclamide 1.5 μg/kg i.v. plus pump 300 μM at ½ μl/hr) was 1/5. The “Animals showing no evidence of hemorrhage” value with thromboembolic stroke (co-treated with glibenclamide) was 4/5. In addition, in data set [3] (Na azide 1 mM, glibenclamide 1 μM), the “Necrotic death (propidium iodide) induced by Na azide” value is recorded as “largely prevented”. Besides, in data set [4], the “Serum glucose at 8 hr” value is 93 ± 3 mg/dL. In the data set with MCA stroke (MCE model) [2], the “Rise of water in TTC(+) tissue over uninvolved hemisphere” value was determined as 2.5% and the “Rise of water in involved hemisphere over control hemisphere” value is 2.0%. Also, the “Excess water in stroke hemisphere compared with saline-treated rats” value in the data set on rodent model of stroke is “only half as much excess water”. In addition, the “Gelatinase activity in presence of compound” value in the data set with MMP-9 & MMP-2 is listed as “the same as that assayed without”.

As to “5′-GGCCGAGTGGTTCTCGGT-3′ (chemistry not given here) [AS-ODN, antisense oligodeoxynucleotide used to knock down SUR1 expression]”, the “Depolarization of R1 astrocytes on Na azide” value with SUR1 is reported as “little or no depolarization”; with SUR1 (listed as SUR1KD) it was 8.7±1.7 mV. The “SUR1 expression in gliotic capsule (immunoblot)” value in the data set with SUR1 (ODN infused for 14 days, compared with scrambled ODN) was “significant reduction in SUR1 expression”. For the same compound, the “Membrane blebbing after exposure to Na azide” value in the data set with SUR1 (R1 astrocytes) was “not observed”.
